In ChEMBL document CHEMBL1124903 (J Med Chem, 1990):

Experiment: Half life (T 1/2) estimated in the absence of light, in 50 mM Tris-HCl 1 mM EDTA (pH 7.4) buffer.
Type: ADME
Details: 50 mM Tris-HCl 1 mM EDTA buffer
For `CC(c1ccc(Cl)cc1)N1CCC2(CC1)C(=O)NCN2c1ccc(N=[N+]=[N-])cc1` (centres undefined), the half-life was greater than 24 h. In the case of `CC(c1ccc(Cl)cc1)N1CCC2(CC1)C(=O)NCN2c1ccc([N+]#N)cc1` (centres undefined), the half-life is reported as 5 h. Compound `CN(c1ccc(N=[N+]=[N-])cc1)C1CCC2(O)C3Cc4ccc(O)c5c4C2(CCN3CC2CC2)C1O5` (centres undefined) has a half-life greater than 24 h. With `CN(c1ccc([N+]#N)cc1)C1CCC2(O)C3Cc4ccc(O)c5c4C2(CCN3CC2CC2)C1O5` (centres undefined) [NALTREXONEDIAZONIUM] the half-life was 5 h.
